The values that follow come from patent US10272036B2, “Composition for oral delivery of bioactive agents” (priority 2013, dated 2019).

Data set [1] has as its system Rodents. The settings on record: cited from earlier work.
For data set [2], the system named is BALB/C mice.
From the text: Experimental Methods: Ten-twelve week old female BALB/C mice are used. Mice are fed ad libitum. Each experimental group is housed in a separate cage.
Three groups of 4 mice are each fed ad libitum as follows: 1) Inventive Warfarin composition, mixed in baits at 4% Warfarin activity, 2) Unencapsulated Warfarin, mixed in baits feed at 4% activity, 3) Bait containing a composition as in Example 3, containing no Warfarin or other bioactive. The feed intake and kill effect on the mice are monitored.
The subject of data set [3] is BALB/C mice. Description: Oral administration of OVA composition to mice, immune response (ELISA IgG/IgA, ASC). Type of data set: in vivo. The following applies: OVA solution subcutaneously (SC), 0 and 3 weeks, read at week 4, expected. How it is done: Ovalbumin is orally administered to mice to test the efficacy of the inventive compositions in inducing an immune response.
Ovalbumin composition: Ovalbumin (1 mg/g of ovalbumin, Sigma, St. Louis, Mo.,) is incorporated into the inventive composition as described in Example 5. Three groups of 4 mice each are inoculated as follows: 1) ovalbumin (OVA) in the composition, administered orally, 2) OVA solution, administered subcutaneously (SC), 3) antigen free composition administered orally. Mice are inoculated at 0 and 3 weeks. Each dose administers a total 100 mg of dry composition mixed with corn oil at a ratio of 1:2 w/w of dry composition/oil, coated onto feed pellets. At week 4 each mouse is euthanized and serum and spleen cells are harvested.
Immunological assays: Serum is assayed for IgG and IgA by ELISA. ELISA is performed using OVA absorbed to polystyrene plates. Samples are placed in wells in triplicate at a 1:25 dilution for serum. […] Optical density of each well is determined by placing the plate in a microtiter plate spectrophotometer and reading the plate at 490 nm. […]
The OVA specific IgG and IgA antibodies are quantified by determining the increase in optical density over time. […] No OVA specific IgG or IgA antibodies are expected to be detected in mice fed antigen free composition.
(In an ELISA, binding on a coated surface is turned into a signal by an enzyme label.)

Data set [4] is described as follows: Degradation of unprotected protein antigen (OVA) activity in simulated gastric juice. In kind it is physicochemical. The settings on record: simulated gastric fluid, 0.08% pepsin, pH-2, 37° C. How it is done:
Western Blot: the compositions were lysed with RIPA buffer as described above, and a calculated amount equivalent to 12 μg of protein per sample was loaded on a 10% SDS-polyacrylamide gradient gel (SDS-PAGE, Bio-Rad, Hercules, Calif.). Proteins were transferred onto a PVDF membrane (Bio-Rad) and blocked for 1 h with 5% non-fat milk in PBS containing 0.5% Tween-20 (PBS-T). Blots were incubated with an appropriate primary antibody at 1:5000 dilutions for 1 h at room temperature. After washing with PBS-T (3×10 mL, 5 min. each), the membranes were incubated with an appropriate HRP-conjugated secondary antibody (EMD Millipore Corporation, Billerica, Mass., USA) at 1:5000 dilution for 1 h. After washing with PBS-T (3×10 mL, 5 min. each), chemiluminescent films were developed with an ECL substrate (Amsheram Biosciences).
To evaluate the loss of activity of a protein antigen following a typical gastric exposure, non-encapsulated OVA (10 mg) was incubated in 10 ml simulated gastric fluid containing 0.08% pepsin at pH-2 for 2 h at 37° C. on a shaker. Medium was withdrawn at 15 min, 30 min, 60 min and 120 min incubation times, and the amount of residual OVA was analyzed using Western Blot analysis as described above.

[5] abbreviates: rodents ingesting baits containing Warfarin.

As for `CC(=O)CC(c1ccccc1)c1c(O)c2ccccc2oc1=O` (stereo not shown) [Warfarin], the time to recovery in data set [1] (rodents after a sublethal amount of Warfarin) was ≤ 8 h. Moreover, in data set [1] (setting [5]), the “time to become unconscious” value is 1 to 2 h and the “time to obvious symptoms of poisoning” value is 15 to 30 min. Also, in data set [2] (after 8 h from feeding, expected), the “kill effect on the mice” value is recorded as “all group 2 mice remain alive”. Further, the “feed intake, less than groups 1 and 3” value in data set [2] (baits at 4% Warfarin activity, ad libitum) is “over 25%”.

B1: ovalbumin (protein, UniProt P01012 2-386, looked up)
Ovalbumin: GSIGAASMEFCFDVFKELKVHHANENIFYCPIAIMSALAMVYLGAKDSTRTQINKVVRFDKLPGFGDSIEAQCGTSVNVHSSLRDILNQITKPNDVYSFSLASRLYAEERYPILPEYLQCVKELYRGGLEPINFQTAADQARELINSWVESQTNGIIRNVLQPSSVDSQTAMVLVNAIVFKGLWEKAFKDEDTQAMPFRVTEQESKPVQMMYQIGLFRVASMASEKMKILELPFASGTMSMLVLLPDEVSGLEQLESIINFEKLTEWTSSNVMEERKIKVYLPRMKMEEKYNLTSVLMAMGITDVFSSSANLSGISSAESLKISQAVHAAHAEINEAGREVVGSAEAGVDAASVSEEFRADHPFLFCIKHIATNAVLFFGRCVSP
notes: Ovalbumin, model vaccine / protein antigen, unprotected or as solution
Regarding B1, the “OVA specific serum IgA, IgG and ASC secreting cells” value in data set [3] is given as “equally increased”. Besides, the “Remaining activity (%)” value is given as 61% in data set [4] (15 min, relative to pre-exposure activity); 55% in data set [4] (30 min); 38% in data set [4] (60 min); 2% in data set [4] (120 min).
